Experimental data published in patent US20040171489A1, “Synergistic active compound combinations for controlling harmful plants” (priority 1998, published 2004).
Counter-ions that a name gives are not always drawn.

Tests used:
Sorghum verticilliflorum = assay: Example 13 field trial, 2- to 4-leaf stage: herbicidal effect; format: in vivo; settings: 17 days after application
Protocol: (§1) The herbicidal efficacy of the active compounds or active compound mixtures was scored visually using the treated plots in comparison to untreated control plots. The damage and development of all above-ground parts of the plants were recorded. Scoring was carried out using a percentage scale (100% effect=all plants killed; 50% effect=50% of the plants and the green parts of the plants killed; 0% effect=no noticeable effect=like control plot. The scores of in each case 4 plots were averaged.
(§2) If the observed activity values already exceed the formal sum of the values for the trials with the individual applications, they also exceed the expected value according to Colby which is calculated using the following formula and which is likewise considered to be an indication of synergism (cf. S. R. Colby; in Weeds 15 (1967) p. 20 to 22):
(§3) Crop plants were grown outdoors on plots under natural outdoor conditions, and seeds or rhizome pieces of typical harmful plants were laid out or the natural weed growth was utilized. Treatment with the compositions according to the invention was carried out after the harmful plants had emerged and the crop plants were, generally, at the 2- to 4-leaf stage; in some cases (as stated), application of individual active compounds or active compound combinations was carried out pre-emergence (cf. Section 1) or post-emergence (cf. Section 2) or as a sequential treatment partly pre-emergence and/or post-emergence. After the application, for example 2, 4, 6 and 8 weeks after the application, the effect of the preparations was scored visually by comparison with untreated controls (cf. scoring in Section 1). In the field trial as well, the compositions according to the invention have synergistic herbicidal activity against a broad spectrum of economically important weed grasses and broad-leaved weeds. […] Moreover, the effects in essential phases of the scoring period were above the expected values according to Colby, also indicating synergism. In contrast, the crop plants were, as a consequence of the treatments with the herbicidal compositions, damaged only to a small degree, if at all.

summer wheat = assay: Example 13 field trial, 2- to 4-leaf stage: crop damage; format: in vivo, Triticum aestivum; settings: 17 days after application
Protocol: as §1, §2, §3

Matricaria chamomilla = assay: Example 14 field trial, 2- to 4-leaf stage: herbicidal effect; format: in vivo; settings: 28 days after application
Protocol: as §1, §2, §3

Lamium purpurea = assay: Example 12 field trial, 2- to 4-leaf stage: herbicidal effect; format: in vivo; settings: 42 days after application
Protocol: as §1, §2, §3

winter wheat [1] = assay: Example 12 field trial, 2- to 4-leaf stage: crop damage; format: in vivo, Triticum aestivum
Protocol: as §1, §2, §3

Oryza sativa (rice) = assay: Example 22 field trial, 2-leaf stage: crop damage; format: in vivo; settings: 60 g of ai/ha; 14 days after application
Protocol: as §1, §2, §3

Monochoria vaginalis = assay: Example 22 field trial, 2-leaf stage: herbicidal effect; format: in vivo; settings: 60 g of ai/ha; 14 days after application
Protocol: as §1, §2, §3

winter barley = assay: Example 5 field trial, 2-4 leaf stage: crop damage; format: in vivo, Hordeum vulgare; settings: winter barley (Hordeum vulgare), in vivo, 28 days
Protocol: as §1, §2
as §3, with “In contrast, the crop plants were, as a consequence of the treatments with the herbicidal compositions, damaged only to a small degree, if at all.” left out

Papaver rhoeas = assay: Example 5 field trial, 2-4 leaf stage: herbicidal effect; format: in vivo; settings: 2.5 g of ai/ha; 28 days after application
Protocol: as §1, §2
as §3, with “In contrast, the crop plants were, as a consequence of the treatments with the herbicidal compositions, damaged only to a small degree, if at all.” left out

winter wheat [2] = assay: Example 11 field trial, 2- to 4-leaf stage: crop damage; format: in vivo, Triticum aestivum; settings: 28 days after application
Protocol: as §1, §2, §3

Capsella bursa-pastoris = assay: Example 11 field trial, 2- to 4-leaf stage: herbicidal effect; format: in vivo; settings: 28 days after application
Protocol: as §1, §2, §3

winter wheat [3] = assay: Example 10 pre-emergence application, fall: crop damage; format: in vivo, Triticum aestivum; settings: 250 g of ai/ha; 169 days after application
From the text: (§4) Seeds or rhizome pieces of monocotyledonous and dicotyledonous weed plants are placed in sandy loam soil in pots and covered with soil. The compositions, formulated in the form of concentrated aqueous solutions, wettable powders or emulsion concentrates, are then applied to the surface of the soil cover as aqueous solution, suspension or emulsion at an application rate of 600 to 800 l of water/ha (converted), in various dosages. After the treatment, the pots are placed in a greenhouse and kept under good growth conditions for the weeds. After the test plants have emerged, the damage to the plants or the negative effects on the emergence is scored visually after a test period of 3 to 4 weeks by comparison with untreated controls. As shown by the test results, the compositions according to the invention have good herbicidal pre-emergence activity against a broad spectrum of weed grasses and broad-leaved weeds.
as §1, §2, §3

Galium aparine = assay: Example 10 pre-emergence application, fall: herbicidal effect; format: in vivo; settings: 250 g of ai/ha; 169 days after application
From the text: as §4, §1, §2, §3

Ipomoea hederacea = assay: Example 17 field trial, pre-emergence: herbicidal effect; format: in vivo; settings: 16 days after application
From the text: as §4, §1, §2, §3

Setaria faberi = assay: as above; format: in vivo; settings: 16 days after application
From the text: as §4, §1, §2, §3

Zea mays (corn) = assay: Example 17 field trial, pre-emergence: crop damage; format: in vivo; settings: in vivo
From the text: as §4
The herbicidal efficacy of the active compounds or active compound mixtures was scored visually using the treated plots in comparison to untreated control plots. The damage and development of all above-ground parts of the plants were recorded. […]
as §2
Crop plants were grown outdoors on plots under natural outdoor conditions, and seeds or rhizome pieces of typical harmful plants were laid out or the natural weed growth was utilized. […] After the application, for example 2, 4, 6 and 8 weeks after the application, the effect of the preparations was scored visually by comparison with untreated controls (cf. scoring in Section 1). […]

Elusine indica = assay: Example 18 field trial, 3-leaf stage: herbicidal effect; format: in vivo; settings: 31 days after application
Protocol: as §1, §2
as §3, with “In contrast, the crop plants were, as a consequence of the treatments with the herbicidal compositions, damaged only to a small degree, if at all.” left out

[4] = system: corn which is glufosinate-ammonium-resistant; assay: Example 18 field trial, 3-leaf stage: crop damage; format: in vivo, Corn (LL); settings: 31 days after application
Protocol: The damage and development of all above-ground parts of the plants were recorded.
Crop plants were grown outdoors on plots under natural outdoor conditions, and seeds or rhizome pieces of typical harmful plants were laid out or the natural weed growth was utilized.

## N#Cc1cc(Br)c(O)c(Br)c1 [(B2.3.1), bromoxynil]
Sorghum verticilliflorum; 225 g of ai/ha
  herbicidal effect, SORVE: 0%
Sorghum verticilliflorum; 450 g of ai/ha
  herbicidal effect, SORVE: 25%
Summer wheat; 225 g of ai/ha
  damage, TRZAS: 0%
Summer wheat; 450 g of ai/ha
  damage, TRZAS: 0%

## N#Cc1cc(I)c(O)c(I)c1 [(B2.3.2), ioxynil]
Matricaria chamomilla; 187 g of ai/ha
  herbicidal effect, MATCH: 30%
Matricaria chamomilla; 375 g of ai/ha
  herbicidal effect, MATCH: 45%

## COc1ncc(F)c2nc(S(=O)(=O)Nc3c(F)cccc3F)nn12 [(B2.5.2), florasulam]
Lamium purpurea; 3.7 g of ai/ha
  herbicidal effect, LAMPU: 35%
Lamium purpurea; 7.5 g of ai/ha
  herbicidal effect, LAMPU: 35%
Lamium purpurea; 15 g of ai/ha
  herbicidal effect, LAMPU: 40%
Winter wheat [1]; 3.7 g of ai/ha, 42 days after application
  damage, TRZAW: 3%
Winter wheat [1]; 7.5 g of ai/ha, 42 days after application
  damage, TRZAW: 3%
Winter wheat [1]; 15 g of ai/ha, 42 days after application
  damage, TRZAW: 6%

## CCOC(=O)C(Cl)Cc1cc(-n2nc(C)n(C(F)F)c2=O)c(F)cc1Cl (stereo not shown) [(B2.6.3), carfentrazone-ethyl, reference compound]
Oryza sativa (rice)
  damage, ORYSA: 0%
Monochoria vaginalis
  herbicidal effect, MOOVA: 47%

## CCOC(=O)/C(Cl)=C/c1cc(N2C(=O)C3=C(CCCC3)C2=O)ccc1Cl [(B2.6.8), cinidon-ethyl]
Lamium purpurea; 25 g of ai/ha
  herbicidal effect, LAMPU: 60%
Lamium purpurea; 50 g of ai/ha
  herbicidal effect, LAMPU: 60%
Winter wheat [1]; in vivo
  damage, TRZAW: 3%

## COc1nc(C)nc(NC(=O)NS(=O)(=O)c2cc(I)ccc2C(=O)O)n1 [(B3.1.4), iodosulfuron-methyl sodium salt, reference compound]
Winter barley
  damage, HORVW: 0%
Papaver rhoeas
  herbicidal effect, PAPRH: 0%

## O=C(Nc1ccc(F)cc1F)c1cccnc1Oc1cccc(C(F)(F)F)c1 [(B3.4.2), diflufenican, reference compound]
Winter wheat [2]; 75 g of ai/ha
  damage, TRZAW: 0%
Winter wheat [2]; 150 g of ai/ha
  damage, TRZAW: 0%
Capsella bursa-pastoris; 75 g of ai/ha
  herbicidal effect, CAPPBP: 45%
Capsella bursa-pastoris; 150 g of ai/ha
  herbicidal effect, CAPPBP: 67%

## CNC1=C(c2cccc(C(F)(F)F)c2)C(=O)C(c2ccccc2)O1 (stereo not shown) [(B3.4.4), flurtamone]
Winter wheat [3]
  damage, TRZAW: 2%
Galium aparine
  herbicidal effect, GALAP: 50%

## CS(=O)(=O)c1cc(C(F)(F)F)ccc1C(=O)c1cnoc1C1CC1 [(B3.4.5), isoxaflutole, reference compound]
Ipomoea hederacea; 105 g of ai/ha
  herbicidal effect, IPOHE: 87%
Ipomoea hederacea; 210 g of ai/ha
  herbicidal effect, IPOHE: 85%
Setaria faberi; 105 g of ai/ha
  herbicidal effect, SETFA: 90%
Setaria faberi; 210 g of ai/ha
  herbicidal effect, SETFA: 93%
Zea mays (corn)
  damage, ZEAMA: 0%

## CP(=O)(O)CCC(N)C(=O)O (stereo not shown) [(B4.1.2), glufosinate monoammonium salt]
Elusine indica; 300 g of ai/ha
  herbicidal effect, ELEIN: 55%
Elusine indica; 600 g of ai/ha
  herbicidal effect, ELEIN: 78%
[4]; 300 g of ai/ha
  damage, Corn (LL): 0%
[4]; 600 g of ai/ha
  damage, Corn (LL): 0%
